Read-outs that look alike come from different tables or passages of the source.
Legend:
Mtb in macrophages = assay: Inhibition of Mtb replication in macrophages (intramacrophage EC50); format: cell-based, Mycobacterium tuberculosis; settings: Table S2; read-out: Macrophages EC50
M. tuberculosis = assay: Extracellular activity against M. tuberculosis in cholesterol media (Alamar Blue reduction assay); format: cell-based, Mycobacterium tuberculosis
[1] = test system: non-replicating M. tuberculosis; assay: Hu Coats 100-day old culture model; settings: added to PB, 50 μM
[2] = Mycobacterium tuberculosis, 240 h, 7H12-Cholesterol media, 10 days, read-out: Cholesterol broth: alamar blue--EC50

Structure (SMILES)	EC50 (M. tuberculosis; [2]) [µM]	other results
Cn1ncnc1CC(=O)N1[C@@H]2CC(c3nc(-c4ccc(Cl)c(Cl)c4)no3)C[C@H]1C2 (stereo partly drawn) [mCLF025]		EC50 (Mtb in macrophages): > 30 µM; EC50 (M. tuberculosis; Table S2, read-out: Cholesterol EC50): > 30 µM; Potency of trans isomer in words (M. tuberculosis; Table S2 assays): inactive
CC(=O)NC[C@H]1CN(c2ccc(N3CCOCC3)c(F)c2)C(=O)O1 [LIN, Linezolid, reference compound]		CFU reduction versus PB [1]: superior CFU reduction
Cc1noc(CC(=O)N2CC3CC(C2)C3c2nc(-c3ccc(F)cc3)no2)n1 (stereo not drawn) [Compound 209, 1-(6-(3-(4-fluorophenyl)-1,2,4-oxadiazol-5-yl)-3-azabicyclo[3.1.1]heptan-3-yl)-2-(3-methyl-1,2,4-oxadiazol-5-yl)ethan-1-one]	≥ 10	
Cn1ncnc1CC(=O)N1CCC(c2noc(C34CC(C)(C3)C4)n2)CC1 [Compound 161, 2-(1-methyl-1H-1,2,4-triazol-5-yl)-1-(4-(5-(3-methylbicyclo[1.1.1]pentan-1-yl)-1,2,4-oxadiazol-3-yl)piperidin-1-yl)ethan-1-one]	> 10	
Cc1nonc1CC(=O)N1CCCC(n2cc(C(=O)N3CCOCC3)nn2)C1 (stereo not drawn) [Compound 244, 2-(4-methyl-1,2,5-oxadiazol-3-yl)-1-(3-(4-(morpholine-4-carbonyl)-1H-1,2,3-triazol-1-yl)piperidin-1-yl)ethan-1-one]	> 10	
Cc1nonc1CC(=O)N1CCC(c2nc(C3CCC(C)(C)CC3)no2)CC1 [Compound 88, 1-(4-(3-(4,4-dimethylcyclohexyl)-1,2,4-oxadiazol-5-yl)piperidin-1-yl)-2-(4-methyl-1,2,5-oxadiazol-3-yl)ethan-1-one]	0.181	
Cc1noc(CC(=O)N2CCC(c3nc(C4CCCCC4)no3)CC2)n1 [Compound 23, 1-(4-(3-cyclohexyl-1,2,4-oxadiazol-5-yl)piperidin-1-yl)-2-(3-methyl-1,2,4-oxadiazol-5-yl)ethan-1-one]	> 10	
Cc1nonc1CC(=O)N1CCC(c2nc(-c3cccc(F)c3)no2)CC1 [Compound 144, 1-(4-(3-(3-fluorophenyl)-1,2,4-oxadiazol-5-yl)piperidin-1-yl)-2-(4-methyl-1,2,5-oxadiazol-3-yl)ethan-1-one]	0.59	
Cn1ncnc1CC(=O)N1C[C@H]2C[C@@H](C1)[C@@H]2c1nc(-c2ccc(Cl)c(F)c2)no1 [Compound 221, 1-((1R,5S,6r)-6-(3-(4-chloro-3-fluorophenyl)-1,2,4-oxadiazol-5-yl)-3-azabicyclo[3.1.1]heptan-3-yl)-2-(1-methyl-1H-1,2,4-triazol-5-yl)ethan-1-one]	0.1	
Cc1nonc1CC(=O)N1CCC(c2nc(-c3cccc(F)c3F)no2)CC1 [Compound 143, 1-(4-(3-(2,3-difluorophenyl)-1,2,4-oxadiazol-5-yl)piperidin-1-yl)-2-(4-methyl-1,2,5-oxadiazol-3-yl)ethan-1-one]	1.2	
Cc1nonc1CC(=O)N1CCC(c2nc(-c3ccc(Cl)c(OC(F)(F)F)c3)no2)CC1 [Compound 101]	0.731	
Cc1nonc1CC(=O)N1CCC(c2ccc(-c3ccc(F)cc3)nn2)CC1 [Compound 255, 1-(4-(6-(4-fluorophenyl)pyridazin-3-yl)piperidin-1-yl)-2-(4-methyl-1,2,5-oxadiazol-3-yl)ethan-1-one]	> 10	
Cc1nonc1CC(=O)N1CCC(c2nc([C@@H]3CC[C@H](F)C3)no2)CC1 [Compound 113, 1-(4-(3-((1R,3S)-3-fluorocyclopentyl)-1,2,4-oxadiazol-5-yl)piperidin-1-yl)-2-(4-methyl-1,2,5-oxadiazol-3-yl)ethan-1-one]	> 25	
Cc1nonc1CC(=O)N1CC2CC(C1)C2c1nc(C2CCC(C)(F)CC2)no1 (stereo not drawn) [Compound 211, 1-(6-(3-(4-fluoro-4-methylcyclohexyl)-1,2,4-oxadiazol-5-yl)-3-azabicyclo[3.1.1]heptan-3-yl)-2-(4-methyl-1,2,5-oxadiazol-3-yl)ethan-1-one]	3.76	
Cc1nonc1CC(=O)N1CC2CC(C1)C2n1nnc(-c2ccc(F)cc2)n1 (stereo not drawn) [Compound 243, 1-(6-(5-(4-fluorophenyl)-2H-tetrazol-2-yl)-3-azabicyclo[3.1.1]heptan-3-yl)-2-(4-methyl-1,2,5-oxadiazol-3-yl)ethan-1-one]	> 10	
Cn1ncnc1CC(=O)N1CCC(c2nc(-c3ccc(OC(F)(F)F)cc3)no2)CC1 [Compound 170, 2-(1-methyl-1H-1,2,4-triazol-5-yl)-1-(4-(3-(4-(trifluoromethoxy)phenyl)-1,2,4-oxadiazol-5-yl)piperidin-1-yl)ethan-1-one]	0.13	
Cc1nonc1CC(=O)N1CC2CC1CC2c1nc(C2CCC(F)C2)no1 (stereo not drawn) [Compound 197, 1-(5-(3-(3-fluorocyclopentyl)-1,2,4-oxadiazol-5-yl)-2-azabicyclo[2.2.1]heptan-2-yl)-2-(4-methyl-1,2,5-oxadiazol-3-yl)ethan-1-one]	15.5	
Cc1conc1CC(=O)N1CCC(c2nc(-c3ccc(F)cc3)no2)CC1 [Compound 11, 1-(4-(3-(4-fluorophenyl)-1,2,4-oxadiazol-5-yl)piperidin-1-yl)-2-(4-methylisoxazol-3-yl)ethan-1-one]	1.43	
Cc1nonc1CC(=O)N1CCC(c2nc(-c3ccc(F)cc3)no2)(C(F)(F)F)CC1 [Compound 139, 1-(4-(3-(4-fluorophenyl)-1,2,4-oxadiazol-5-yl)-4-(trifluoromethyl)piperidin-1-yl)-2-(4-methyl-1,2,5-oxadiazol-3-yl)ethan-1-one]	> 10	
Cc1nonc1CC(=O)N1CCC(c2noc(-c3ccc(F)cc3)n2)CC1 [Compound 132, 1-(4-(5-(4-fluorophenyl)-1,2,4-oxadiazol-3-yl)piperidin-1-yl)-2-(4-methyl-1,2,5-oxadiazol-3-yl)ethan-1-one]	1.07	
Cc1nonc1CC(=O)N1CCN(c2nc(-c3ccc(Cl)c(Cl)c3)no2)CC1 [Compound 235, 1-(4-(3-(3,4-dichlorophenyl)-1,2,4-oxadiazol-5-yl)piperazin-1-yl)-2-(4-methyl-1,2,5-oxadiazol-3-yl)ethan-1-one]	0.27	
Cc1noc(CC(=O)N2CCC(c3nc(-c4cc(F)cc(Cl)c4)no3)CC2)n1 [Compound 45, 1-(4-(3-(3-chloro-5-fluorophenyl)-1,2,4-oxadiazol-5-yl)piperidin-1-yl)-2-(3-methyl-1,2,4-oxadiazol-5-yl)ethan-1-one]	2.19	
Cc1cncnc1CC(=O)N1CCC(c2nc(C3CCCCC3)no2)CC1 [Compound 7, 1-(4-(3-cyclohexyl-1,2,4-oxadiazol-5-yl)piperidin-1-yl)-2-(5-methylpyrimidin-4-yl)ethan-1-one]	> 25	
Cc1cncnc1CC(=O)N1CCC(c2nc(-c3ccc(F)cc3)no2)CC1 [Compound 9, 1-(4-(3-(4-fluorophenyl)-1,2,4-oxadiazol-5-yl)piperidin-1-yl)-2-(5-methylpyrimidin-4-yl)ethan-1-one]	3.68	
Cc1nonc1CC(=O)N1CCC(c2nc(-c3cccc(Cl)c3)no2)CC1 [Compound 99, 1-(4-(3-(3-chlorophenyl)-1,2,4-oxadiazol-5-yl)piperidin-1-yl)-2-(4-methyl-1,2,5-oxadiazol-3-yl)ethan-1-one]	0.53	
Cc1nonc1CC(=O)N1CCC(c2nc(-c3cccc(OC(F)(F)F)c3)no2)CC1 [Compound 103, 2-(4-methyl-1,2,5-oxadiazol-3-yl)-1-(4-(3-(3-(trifluoromethoxy)phenyl)-1,2,4-oxadiazol-5-yl)piperidin-1-yl)ethan-1-one]	0.383	
O=C(Cc1cnccn1)N1CCC(n2nnc(-c3ccc(F)cc3)n2)CC1 [Compound 4, 1-(4-(5-(4-fluorophenyl)-2H-tetrazol-2-yl)piperidin-1-yl)-2-(pyrazin-2-yl)ethan-1-one]		EC50 (M. tuberculosis; 7H12-Cholesterol media, 10 days, read-out: Cholesterol broth: alamar blue--EC50): 0.122 µM
COC(C)c1noc(C2CCN(C(=O)Cc3nonc3C)CC2)n1 (stereo not drawn) [Compound 91, 1-(4-(3-(1-methoxyethyl)-1,2,4-oxadiazol-5-yl)piperidin-1-yl)-2-(4-methyl-1,2,5-oxadiazol-3-yl)ethan-1-one]	> 10	
